The values that follow come from PMC3857224, “Inhibition of DNA Glycosylases via Small Molecule Purine Analogs” (PLoS ONE, 2013).

The test system of data set [1] is NEIL1-depleted cells. More on the design: method as in PMID 21131780. Conditions: minimally toxic doses, siRNA NEIL1 depletion; cited from earlier work.
Data set [2] concerns the target T1, NEIL1 (Homo sapiens, UniProt Q96FI4).
T1 construct: made in house
In words: qHTS fluorogenic glycosylase/AP lyase assay, 1536-well, Sp/Gh substrate. Type of data set: biochemical. The settings on record: 5 concentrations. How it is done: The fluorogenic assay was miniaturized to 4 µL in 1536-well black solid plates by optimization of the enzyme and Sp/Gh substrate concentrations. Briefly, 3 µL of 25 nM NEIL1 were dispensed into each well of a 1536-well plate (except buffer in columns 3 and 4 as a negative control). Compounds (DMSO solutions) and control (DMSO only) (23 nL) were transferred to the plate via Kalypsys pintool. The plate was incubated for 15 min at room temperature, and then 1 µL of the Sp/Gh-containing DNA substrate (75 nM final concentration) was added to start the reaction. The plate was immediately transferred into the ViewLux reader for the kinetic fluorescence read. Initial rate data were normalized against uninhibited and no-enzyme controls and the resulting percent activities as a function of compound concentration were fitted using the Hill equation.
Having established the general principle for a glycosylase screening assay, further assay development was undertaken to enable HTS in which the reaction volumes were reduced by 5-fold to a total of 4 µL. Initially, the library of pharmacologically active compounds (LOPAC^1280) was screened for inhibitors of NEIL1 as a determination of the feasibility of this high-throughput method. […] All compounds were screened at 5 different concentrations that allowed for the initial estimation of inhibitory potency (IC50) values, as well as an evaluation of the shape of the response curves. In addition to the anticipated inhibitors (known DNA intercalators, such as ellipticine (IC50 = 2 µM)) and other small molecules that have been previously established to be promiscuous inhibitors (such as aurintricarboxylic acid (IC50<1 µM)), one interesting hit from this screen was CGP-74514A (NCGC ID is NCGC00015229) (Figure 5A). CGP-74514A is a known small molecule inhibitor of Cdk1 in which the structure of this molecule is based on a purine ring backbone.
(qHTS replaces the single test concentration by a dilution series.)

The subject of data set [3] is duplex DNA ladder. Kind of data set: DNA ladder gel-shift intercalation assay. Type of data set: binding. Conditions: 40 µM compound, 20 min room temperature. How it is done:
To test whether potential inhibitors could exert their inhibitory effect via DNA intercalation, 10 µL reactions containing 500 ng of a 100-bp DNA ladder were incubated at room temperature for 20 min with 40 µM of the selected compound. Ellipticine, a compound that is known to intercalate into duplex DNA was used as a control compound at a final concentration of 40 µM. Samples were resolved on a 1% agarose gel in 0.5X Tris-borate EDTA running buffer at 120 V for 2 h. Shifts in gel mobility were visualized by post staining with ethidium bromide and images were captured on a ChemiImager 5500 (Protein Simple, Santa Clara, CA).
To assay whether these inhibitors could block NEIL1 activity through DNA intercalation, a DNA ladder gel-shift assay was performed, with ellipticine serving as a positive control. A duplex DNA ladder was incubated with each inhibitor, and analyzed for electrophoretic mobility shift.

T1 sequence (Q96FI4 whole entry): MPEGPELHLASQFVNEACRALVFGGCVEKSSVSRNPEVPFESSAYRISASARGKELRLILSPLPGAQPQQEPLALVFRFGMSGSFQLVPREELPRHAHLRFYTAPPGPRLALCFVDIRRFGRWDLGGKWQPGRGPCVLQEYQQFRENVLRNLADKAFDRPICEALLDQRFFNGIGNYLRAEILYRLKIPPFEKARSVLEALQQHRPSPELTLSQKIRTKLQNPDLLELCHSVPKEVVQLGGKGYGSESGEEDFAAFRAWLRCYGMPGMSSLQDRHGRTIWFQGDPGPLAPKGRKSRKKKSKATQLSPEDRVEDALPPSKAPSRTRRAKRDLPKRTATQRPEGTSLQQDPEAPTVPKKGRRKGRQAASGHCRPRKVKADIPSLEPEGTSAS

Regarding `Cc1nc2ccc(CN(C)c3ccc(C(=O)N[C@@H](CCC(=O)O)C(=O)O)s3)cc2c(=O)[nH]1` [RTX, raltitrexed], the “increased cytotoxicity in NEIL1-depleted cells” value in data set [1] is recorded as 9 fold.

Take `Cc1c2ccncc2c(C)c2c1[nH]c1ccccc12` [ellipticine, reference compound]: in data set [2], half-maximal inhibition (IC50) was put at 2000 nM. The “shift in electrophoretic mobility of DNA ladder (intercalation)” value in data set [3] was “major reduction in the electrophoretic mobility”.
